Measured values published in patent publication US20260231929A1, “SOLVENT COMPOSITION FOR AGROCHEMICAL FORMULATIONS” (SPECIALTY OPERATIONS FRANCE, priority 2023, published 2026).

Assay: Test 1: Maximal solubility of an active in a solvent system (visual observation)
Assay type: physicochemical
From the text: The maximal solubility of an active or a combo of actives in a solvent system is characterized by visual observation. At a given concentration, if the mixture is limpid (with the naked eye), the active ingredient(s) is (are) considered to be soluble in the solvent system at this concentration. However, if a sedimentation of the active ingredient(s) appears, it is not soluble anymore in the solvent system and the maximal solubility is reached. The maximal solubility is thus defined as the maximum amount of active ingredient(s) that can be dissolved in the solvent system, equal to the amount at which the mixture remains limpid (with the naked eye). Each active ingredient or combo is added little by little in different solvent systems. The solutions are magnetically stirred until complete dissolution. Then an additional amount of active ingredient is added and this operation is repeated until the last part of active ingredient added could not be dissolved anymore, taking care to stir the solution after each addition of active ingredient.

maximal solubility of Oxyfluorfen (oxyfluorfen (solo) dissolved in the solvent system): 49.0 g/100 g of solvent
maximal solubility of Picoxystrobin (picoxystrobin (solo) dissolved in the solvent system): 30.0 g/100 g of solvent
Structure (SMILES): CCCCCCCCCC(=O)N(C)C [Rhodiasolv ® ADMA 10, N,N-dimethyldecanamide]
